Organism: Homo sapiens
Assay: Compound tested for hallucinogenic activity in humans was reported; Value reported in (A)= Mescaline units
Format: functional

First: COc1cc(CC(C)N)c(OC)cc1Cl (stereo not given)
Second: COc1cc(CC(C)N)c(OC)cc1Br (stereo not given) [BROLAMFETAMINE]
The Activity of the first is lower: 133 for the first, 150 for the second.

Compared with `CCOc1c(OC)cc(CCN)cc1SC`, `CCOc1cc(CCN)cc(SC)c1OCC` is lower in Activity: 4 for the first, 2 for the second.

First: CCSc1cc(OC)c(CC(C)N)cc1OC (stereo not given)
Second: CCCSc1cc(OC)c(CC(C)N)cc1OC (stereo not given)
The Activity of the first is lower: 50 for the first, 55 for the second.

Compared with `COc1cc(CCN)cc(OC)c1C`, `COc1cc(CCN)cc(OC)c1SC` is higher in Activity: 4 for the first, 10 for the second.

First: COc1cc(CC(C)N)cc(OC)c1Br (stereo not given)
Second: COc1cc(CC(C)N)cc(OC)c1OC (stereo not given)
The Activity of the first is higher: 43 for the first, 2 for the second.

First: COc1cc(CCN)cc(OC)c1OCC1CC1
Second: CCOc1c(OC)cc(CCN)cc1OC
The Activity of the first is lower: 4 for the first, 6 for the second.

Compared with `CCc1cc(OC)c(CC(C)N)cc1SC` (stereo not given), `COc1cc(C)c(SC)cc1CC(C)N` (stereo not given) is lower in Activity: 15 for the first, 7 for the second.

Going from `CCSc1cc(OC)c(CCNO)cc1OC` to `CCCSc1cc(OC)c(CCNO)cc1OC`, the Activity falls from 22 to 15.

Going from `COc1ccc(OC)c(CC(C)N)c1` (stereo not given) to `COc1cc(CC(C)N)c(OC)c(OC)c1` (stereo not given), the Activity rises from 2.5 to 4.

First: COc1cc(CC(C)N)c(OC)c2c1OCO2 (stereo not given)
Second: COc1cc(CC(C)N)c(OC)c(C)c1C (stereo not given)
The Activity of the first is lower: 6 for the first, 12 for the second.

First: COc1cc(C)cc(OC)c1CC(C)N (stereo not given)
Second: COc1cc(OC)c(CC(C)N)c(OC)c1 (stereo not given)
The Activity of the first is higher: 15 for the first, 10 for the second.

Compared with `COc1cc(OC)c(CC(C)N)cc1Br` (stereo not given), `COc1cc(CC(C)N)c(OC)cc1I` (stereo not given) is higher in Activity: 4 for the first, 133 for the second.

Compared with `CCc1cc(OC)c(CC(C)N)cc1OC` (stereo not given), `CCCc1cc(OC)c(CC(C)N)cc1OC` (stereo not given) is higher in Activity: 75 for the first, 80 for the second.

Compared with `COc1cc(C2CC2N)c(OC)cc1C` (stereo not given), `COc1cc(CCN)c(OC)cc1C` is lower in Activity: 17 for the first, 8 for the second.

Compared with `CCCSc1c(OC)cc(CCN)cc1OC`, `CCCCSc1c(OC)cc(CCN)cc1OC` is lower in Activity: 16 for the first, 3 for the second.

`COc1cc(SC(C)(C)C)c(OC)cc1CCN` and `COc1cc(SC)c(OC)cc1CCN` are the same in Activity: 4 for the first, 4 for the second.

Going from `CCOc1cc(CCN)cc(OC)c1OC` to `CCOc1cc(CCN)cc(OC)c1OCC`, the Activity rises from 1 to 1.3.

Going from `COc1cc(CCN)c(OC)c2ccccc12` to `COc1cc(CCN)c(OC)c(C)c1C`, the Activity rises from 10 to 11.

`CCC(Cc1ccc2c(c1)OCO2)NC` (stereo not given) and `CCC(N)Cc1ccc2c(c1)OCO2` (stereo not given) are the same in Activity: 1.5 for the first, 1.5 for the second.

First: CCOc1c(OC)cc(CC(C)N)cc1OC (stereo not given)
Second: C=CCOc1c(OC)cc(CC(C)N)cc1OC (stereo not given)
The Activity of the first is lower: 7 for the first, 11 for the second.

Compared with `CCC(C)Sc1cc(OC)c(CCN)cc1OC` (stereo not given), `COc1cc(SC(C)C)c(OC)cc1CCN` is higher in Activity: 4 for the first, 21 for the second.

`CCOc1cc(CCN)cc(OC)c1SC` and `CCOc1cc(CCN)cc(OC)c1SCC` are the same in Activity: 4 for the first, 4 for the second.

Going from `COc1cc(CCN)cc(OC)c1OC(C)C` to `COc1cc(CCN)cc(OC)c1OC` [MESCALINE], the Activity falls from 5 to 1.

Compared with `CCNC(C)Cc1ccc2c(c1)OCO2` (stereo not given), `CC(Cc1ccc2c(c1)OCO2)NO` (stereo not given) is higher in Activity: 2 for the first, 2.3 for the second.

Going from `COc1c(CC(C)N)ccc2c1OCO2` (stereo not given) to `COc1cc2c(cc1CC(C)N)OCO2` (stereo not given), the Activity rises from 6 to 8.

Going from `CC(N)Cc1ccc2c(c1)OCO2` (stereo not given) [TENAMFETAMINE] to `CC(C)(N)Cc1ccc2c(c1)OCO2`, the Activity falls from 3 to 1.5.

Compared with `COc1cc(CC(C)N)c(OC)c2c1CCC2` (stereo not given), `COc1cc(CCN)c(OC)c2c1CCC2` is lower in Activity: 20 for the first, 14 for the second.

`COc1cc(CCN)cc(SC)c1OC` and `CCSc1cc(CCN)cc(OC)c1OC` are the same in Activity: 4 for the first, 4 for the second.

Going from `COc1cc(CCN)c(OC)cc1Cl` to `COc1cc(CCN)c(OC)cc1I`, the Activity rises from 10 to 17.

First: COc1cc(SCC2CC2)c(OC)cc1CCN
Second: CCSc1cc(OC)c(CCN)cc1OC
The Activity of the first is lower: 7 for the first, 16 for the second.

Going from `CCCOc1c(OC)cc(CCN)cc1OC` to `C=C(C)COc1c(OC)cc(CCN)cc1OC`, the Activity falls from 7 to 6.

First: COc1cc(CC(C)N)cc(OC)c1OCc1ccccc1 (stereo not given)
Second: CCOc1cc(OC)c(CC(C)N)cc1OC (stereo not given)
The Activity of the first is lower: 3 for the first, 9 for the second.

Going from `CCOc1c(OC)cc(CCN)cc1SCC` to `CCSc1c(OC)cc(CCN)cc1OC`, the Activity rises from 2 to 12.

Going from `COc1cc(SC)c(OC)cc1CC(C)N` (stereo not given) to `COc1cc(SC(C)C)c(OC)cc1CC(C)N` (stereo not given), the Activity falls from 40 to 32.

First: COCCSc1cc(OC)c(CCN)cc1OC
Second: CCCSc1cc(OC)c(CCN)cc1OC
The Activity of the first is lower: 9 for the first, 15 for the second.

Compared with `COc1cc(OC)c(OC)cc1CC(C)N` (stereo not given), `COc1cc(CC(C)N)c(OC)cc1C` (stereo not given) [DOM] is higher in Activity: 10 for the first, 50 for the second.

Going from `CCC(C)Sc1cc(OC)c(CCNO)cc1OC` (stereo not given) to `COc1cc(SCCF)c(OC)cc1CCN`, the Activity rises from 3 to 29.

First: COc1ccc(OC)c(OC)c1CC(C)N (stereo not given)
Second: COc1cc(CC(C)N)c(OC)c(OC)c1OC (stereo not given)
The Activity of the first is higher: 10 for the first, 6 for the second.

Compared with `CCc1cc(OC)c(CCN)cc1OC`, `CCCc1cc(OC)c(CCN)cc1OC` is higher in Activity: 18 for the first, 37 for the second.

Going from `COc1cc(CCN)c(OC)cc1Br` to `COc1cc(CC(C)N)c(OC)cc1CCF` (stereo not given), the Activity rises from 16 to 110.

First: COc1cc([N+](=O)[O-])c(OC)cc1CC(C)N (stereo not given)
Second: COc1cc(CC(C)N)c(SC)cc1C (stereo not given)
The Activity of the first is higher: 80 for the first, 4 for the second.

Going from `COc1cc(CC(C)N)cc2c1OCO2` (stereo not given) to `COc1ccc(CC(C)N)cc1` (stereo not given) [PARA-METHOXYAMPHETAMINE], the Activity rises from 2 to 5.

`COc1cc(CCN)c(OC)c2c1C1CCC2C1` (stereo not given) showed an Activity of 22.

— ChEMBL document CHEMBL1131120, “The frontier orbital phase angles: novel QSAR descriptors for benzene derivatives, applied to phenylalkylamine hallucinogens” (1998)
